# Patent publication US11951185B2, “RNA constructs and uses thereof” (BioNTech SE, priority 2020, dated 2024)
# Key:
# luciferase (Luc) RNA = test: In vivo screening of LNP pilot batches using luciferase (Luc) RNA, intravenous administration; settings: on the basis of the in vivo screening studies
# Procedure: (§1) An exemplary LNP delivery system was developed to effectively and safely deliver therapeutic nucleic acids into the cytosol of various cell types after local administration in vivo. The early formulation work was performed with several promising LNP formulations and surrogate RNA coding for luciferase. The aim of the experiments was to correlate the effect of different ionizable cationic lipids on the efficacy of RNA delivery by LNPs in vivo. Formulations were compared in terms of RNA encapsulation efficiency, apparent pKa, LNP size and polydispersity.
# Based on this the ALC-0315/DSPC/CHOL/ALC-0159 prototype was submitted for in vivo screening. The results presented in FIG. 16 summarize the in vivo testing of two independent pilot batches using luciferase (Luc) RNA.
# The formulation screening procedure described above involves intravenous administration resulting in delivery primarily to the liver. The mechanism of LNP uptake into hepatocytes is driven by binding of endogenous apolipoproteins to the LNP followed by receptor-mediated endocytosis e.g. through low density lipoprotein receptors. […] Luc expression was monitored at 4, 24, 72 and 96 hours post administration (FIG. 17).
# [1] = LNP formulation comparison: RNA encapsulation efficiency, apparent pKa, LNP size and polydispersity; assay type: physicochemical; settings: LNP with surrogate RNA coding for luciferase; among the screened cationic lipids
# Procedure: as §1
smiles,measurement,setting,value
"CCCCCCCCC(CCCCCC)C(=O)OCCCCCCN(CCCCO)CCCCCCOC(=O)C(CCCCCC)CCCCCCCC (centres unmarked) [ALC-0315, ((4-hydroxybutyl)azanediyl)bis(hexane-6,1-diyl)bis(2-hexyldecanoate)]",potency as cationic lipid,luciferase (Luc) RNA,highly potent
same,"physical characteristics regarding particle size, homogeneity, and RNA encapsulation efficiency",[1],suitable physical characteristics
